Patent publication US9850206B2, “S1P and/or ATX modulating agents” (BIOGEN MA INC., priority 2012, dated 2017)
Like-named read-outs stand apart in the source and are kept apart here.

Key:
S1P1 = S1P1 (Homo sapiens, UniProt P21453); experiment: S1P receptor activity assay (calcium flux, FLIPR TETRA), S1P1; assay type: cell-based
Description: (§1) Agonist percentage activation determinations were obtained by assaying sample compounds and referencing the Emax control for each receptor profiled. Antagonist percentage inhibition determinations were obtained by assaying sample compounds and referencing the control EC80 wells for each receptor profiled. The samples were run using a “Single Addition” assay protocol for the agonist and antagonist assay run. The protocol design was as follows:
(§2) Master stock solution: Unless specified otherwise, all sample compounds were diluted in 100% anhydrous DMSO including all serial dilutions. All control wells contained identical solvent final concentrations as did the sample compound wells.
(§3) Compound plate for assay: The sample compounds were transferred from a master stock solution into a daughter plate that was used in the assay. Each sample compound was diluted into assay buffer (1×HBSS with 20 mM HEPES and 2.5 mM Probenecid) at an appropriate concentration to obtain final concentrations.
(§4) Sample compounds were plated in an eight-point, four-fold dilution series in duplicate with a top concentration of 10 μM. The concentrations described here reflect the final concentration of the compounds during the antagonist assay.
(§5) Reference agonists were handled as mentioned above serving as assay control. The reference agonists were handled as described above for Emax.
(§6) Assay was read for 180 seconds using the […] (This assay run added sample compounds and reference agonist to respective wells). At the completion of the first “Single Addition” assay run, assay plate was removed from the […] and placed at 25° C. for seven (7) minutes.
(§7) Using the EC80 values determined during the agonist assay, stimulated all pre-incubated sample compound and reference antagonist (if applicable) wells with EC80 of reference agonist. Read for 180 seconds using the […] (This assay added reference agonist to respective wells—then fluorescence measurements were collected to calculate percentage inhibition values).
(§8) All plates were subjected to appropriate baseline corrections. Once baseline corrections were processed, maximum fluorescence values were exported and data manipulated to calculate percentage activation, percentage inhibition and Z′.

Human ATX protein = target: T1, Human ATX protein (Homo sapiens, UniProt Q13822); experiment: Autotaxin (ATX) FRET assay with FS-3 substrate; assay type: biochemical
T1 construct: made in house
Description: ATX (Autotaxin) is a 125 KDa glycoprotein with lysophospholipase D (LPLD) activity that generates the bioactive lipid lysophosphatidic acid (LPA) from lysophosphatidylcholine (LPC). The ATX biochemical assay utilizes a FRET (fluorescence resonance energy transfer) technology platform. […] ATX catalyzes the hydrolysis of the substrate which separates the dabsyl quencher from the fluorescein reporter, which becomes fluorescent. The reaction is monitored by a SpectraMax M5 (Molecular Devices, Sunnyvale, Calif.) with at excitation wavelength 485 nm and emission wavelength 535 nm.
Fatty acid free-BSA (Sigma A8806): 10 mg/mL in H2O, stored at 4° C.
2×ATX assay buffer: 100 mM Tris, 280 mM NaCl, 10 mM KCl, 2 mM CaCl2, 2 mM MgCl2, pH 7.4.
Human ATX protein: expressed and purified in house. Stored at −80° C.
Substrate FS-3 (Echelon, L-2000): 100 μg in 77.74 μL H2O (1 mM stock), stored at −20° C.
Compound dilution—All compounds were provided at 10 mM in 100% DMSO. In the first well, 2 μL of 10 mM compound was added to 78 μL of DMSO (1:40 dilution). In subsequent wells 3-fold dilution (total 10 dilutions) were performed.
1×ATX assay buffer was made up with a final concentration of 1 mg/mL fatty acid free-BSA using 2×ATX assay buffer, 10 mg/ml fatty acid free-BSA and ddH2O.
38 μL was added per well to the assay plate. The final concentration of ATX in the reaction as 1.0 μg/mL.
2 μL per well of compounds was transferred to provide the desired concentration. The plate was centrifuged, then incubated at room temperature for 30 minutes on the shaker.
FS-3 was diluted with 1×ATX assay buffer to a concentration of FS-3 of 10 μM (5×). Then, 10 μL was added per well to the assay plate. The final concentration of FS-3 in the reaction was 2 μM. The plate was centrifuged. The plate was kept shaking at room temperature for 2 hours. Because FS-3 substrate is light sensitive, plates were kept covered and protected from light.

S1P4 = target: T2, S1P4 (Homo sapiens, UniProt O95977); experiment: S1P receptor activity assay (calcium flux, FLIPR TETRA), S1P4; assay type: cell-based
T2 sequence (O95977 1-384): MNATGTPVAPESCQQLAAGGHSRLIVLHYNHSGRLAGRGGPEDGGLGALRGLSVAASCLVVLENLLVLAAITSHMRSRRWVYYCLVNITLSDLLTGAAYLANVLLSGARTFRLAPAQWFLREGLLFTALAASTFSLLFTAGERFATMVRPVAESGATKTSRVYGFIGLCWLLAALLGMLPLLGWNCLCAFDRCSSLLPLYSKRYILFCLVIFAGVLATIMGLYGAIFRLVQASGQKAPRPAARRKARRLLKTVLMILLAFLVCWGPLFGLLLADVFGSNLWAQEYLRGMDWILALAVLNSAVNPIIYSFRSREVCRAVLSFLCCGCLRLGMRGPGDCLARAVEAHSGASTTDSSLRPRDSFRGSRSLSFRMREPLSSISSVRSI
Description: as §1, §2, §3, §4, §5, §6, §7, §8

S1P5 = S1P5 (Homo sapiens, UniProt Q9H228); experiment: S1P receptor activity assay (calcium flux, FLIPR TETRA), S1P5; assay type: cell-based
S1P5, sequence (Q9H228 whole entry): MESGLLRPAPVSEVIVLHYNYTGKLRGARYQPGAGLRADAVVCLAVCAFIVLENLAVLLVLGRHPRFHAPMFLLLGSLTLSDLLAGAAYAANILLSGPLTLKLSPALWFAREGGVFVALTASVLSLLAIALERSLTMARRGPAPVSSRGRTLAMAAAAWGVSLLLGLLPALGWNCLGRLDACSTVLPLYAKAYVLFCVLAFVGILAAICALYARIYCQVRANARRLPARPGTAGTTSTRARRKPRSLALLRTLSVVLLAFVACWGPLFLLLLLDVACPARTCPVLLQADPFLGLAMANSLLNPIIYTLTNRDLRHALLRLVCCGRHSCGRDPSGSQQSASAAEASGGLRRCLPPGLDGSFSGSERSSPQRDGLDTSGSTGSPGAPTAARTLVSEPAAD
Description: as §1, §2, §3, §4, §5, §6, §7, §8

[1] = calcium flux, top concentration 10 μM, the >5 μM sentence says only 'for S1P1', read-out: IC50 for S1P1 agonist activity
[2] = FS-3 2 μM, ATX 1.0 μg/mL, 2 hours at room temperature, read-out: IC50 (ATX)
[3] = calcium flux, top concentration 10 μM, the >5 μM sentence says only 'for S1P4', read-out: IC50 for S1P4 agonist activity
[4] = calcium flux, top concentration 10 μM, read-out: IC50 for S1P5

S1P1, sequence (P21453 whole entry): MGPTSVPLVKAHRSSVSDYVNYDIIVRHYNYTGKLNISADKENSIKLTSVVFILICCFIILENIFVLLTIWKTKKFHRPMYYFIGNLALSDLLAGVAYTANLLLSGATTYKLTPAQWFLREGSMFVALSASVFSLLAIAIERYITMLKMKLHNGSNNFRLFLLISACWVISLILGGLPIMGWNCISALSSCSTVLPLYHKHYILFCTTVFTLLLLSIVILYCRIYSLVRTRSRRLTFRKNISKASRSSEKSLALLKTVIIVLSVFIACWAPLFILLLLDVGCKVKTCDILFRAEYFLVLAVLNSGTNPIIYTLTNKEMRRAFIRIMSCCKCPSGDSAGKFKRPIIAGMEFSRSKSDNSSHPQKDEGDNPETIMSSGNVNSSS

Row | IC50 (S1P1; [1]) [µM] | IC50 (Human ATX protein; [2]) [µM] | IC50 (S1P4; [3]) [µM] | IC50 (S1P5; [4]) [µM] | SMILES | IC50 (S1P5) [µM] | IC50 (S1P1) [µM] | IC50 (Human ATX protein) [µM] | IC50 (S1P4) [µM]
1 | > 5 | > 10 | ≤ 2 | – | CC(C)(C)[C@H]1CC[C@H](Oc2ccc(NC3CCCN(CCC(=O)O)C3)nc2)CC1 (relative stereo) [Example 12, 3-(3-(5-(trans-4-tert-butylcyclohexyloxy)pyridin-2-ylamino)piperidin-1-yl)propanoic acid] | – | – | – | –
2 | > 5 | > 10 | 2 to 5 | – | CC(C)(C)[C@H]1CC[C@H](Oc2ccc(NC3CCCN(CCC(=O)O)C3)cc2)CC1 (relative stereo) [Example 13, 3-(3-((4-((trans-4-(tert-Butyl)cyclohexyl)oxy)phenyl)amino)piperidin-1-yl)propanoic acid] | – | – | – | –
3 | > 5 | 5 to 10 | > 5 | > 5 | CC(C)(C)[C@H]1CC[C@@H](Oc2ccc(C3CCCN(CCCC(=O)O)C3)cc2)CC1 (stereo in doubt) [Example 4, 4-(3-(4-(cis-4-tert-Butylcyclohexyloxy)phenyl)piperidin-1-yl)butanoic acid] | – | – | – | –
4 | > 5 | – | > 5 | > 5 | CCCCCCCCOc1ccc(C2CCCN(CCC(=O)O)C2)cc1 (centres unmarked) [Example 1, 3-(3-(4-(Octyloxy)phenyl)piperidin-1-yl)propanoic acid] | – | – | – | –
5 | > 5 | – | ≤ 2 | > 5 | CCCCCCCCOc1ccc(C2CCCN(CCCC(=O)O)C2)cc1 (centres unmarked) [Example 2, 4-(3-(4-(Octyloxy)phenyl)piperidin-1-yl)butanoic acid] | – | – | – | –
6 | – | 5 to 10 | – | – | CC(C)(C)[C@H]1CC[C@H](Oc2ccc(C3CCCN(CCC(=O)O)C3)cc2)CC1 (stereo partly drawn) [Example 3, 3-(3-(4-(trans-4-tert-Butylcyclohexyloxy)phenyl)piperidin-1-yl)propanoic acid] | – | – | – | –
7 | > 5 | 5 to 10 | ≤ 2 | > 5 | CCCCCCCCOc1cccc(C2CCCN(CCC(=O)O)C2)c1 (centres unmarked) [Example 5, 3-(3-(3-(Octyloxy)phenyl)piperidin-1-yl)propanoic acid] | – | – | – | –
8 | > 5 | 5 to 10 | ≤ 2 | > 5 | CCCCCCCCOc1cccc(C2CCCN(CCCC(=O)O)C2)c1 (centres unmarked) [Example 6, 4-(3-(3-(Octyloxy)phenyl)piperidin-1-yl)butanoic acid] | – | – | – | –
9 | – | 5 to 10 | ≤ 2 | > 5 | CC(C)(C)[C@H]1CC[C@H](Oc2cccc(C3CCCN(CCC(=O)O)C3)c2)CC1 (stereo partly drawn) [Example 7, 3-(3-(3-((trans-4-(tert-Butyl)cyclohexyl)oxy)phenyl)piperidin-1-yl)propanoic acid] | – | – | – | –
10 | – | 5 to 10 | ≤ 2 | > 5 | CC(C)(C)[C@H]1CC[C@H](Oc2cccc(C3CCCN(CCCC(=O)O)C3)c2)CC1 (stereo partly drawn) [Example 8, 4-(3-(3-((trans-4-(tert-Butyl)cyclohexyl)oxy)phenyl)piperidin-1-yl)butanoic acid] | – | – | – | –
11 | > 5 | > 10 | > 5 | > 5 | CCCCCCCCOc1ccc(C2CCCC(N3CCC(C(=O)O)CC3)C2)cc1 (centres unmarked) [Example 9, 1-(3-(4-(octyloxy)phenyl)cyclohexyl)piperidine-4-carboxylic acid] | – | – | – | –
12 | > 5 | > 10 | > 5 | > 5 | CC(C)(C)[C@H]1CC[C@H](Oc2ccc(C3CCCC(N4CCC(C(=O)O)CC4)C3)cc2)CC1 (stereo partly drawn) [Example 10, 1-(3-(4-(trans-4-tert-butylcyclohexyloxy)phenyl)cyclohexyl)piperidine-4-carboxylic acid] | – | – | – | –
13 | > 5 | 5 to 10 | > 5 | – | CCCCCCCCOc1ccc(NC2CCCN(CCC(=O)O)C2)nc1 (centres unmarked) [Example 11, 3-(3-(5-(Octyloxy)pyridin-2-ylamino)piperidin-1-yl)propanoic acid] | – | – | – | –
14 | – | – | – | – | CCCCCCCCOc1ccc(N2CCN(CCCC(=O)O)CC2)cc1 [Example 15, 4-(4-(4-(Octyloxy)phenyl)piperazin-1-yl)butanoic acid] | > 5 | > 5 | > 10 | ≤ 2
15 | > 5 | > 10 | 2 to 5 | > 5 | CC(C)(C)[C@H]1CC[C@H](Oc2ccc(N3CCN(CCC(=O)O)CC3)cc2)CC1 [Example 17, 3-(4-(4-((trans-4-(tert-Butyl)cyclohexyl)oxy)phenyl)piperazin-1-yl)propanoic acid] | – | – | – | –
16 | > 5 | > 10 | 2 to 5 | > 5 | CC(C)(C)[C@H]1CC[C@H](Oc2ccc(N3CCN(CCCC(=O)O)CC3)cc2)CC1 [Example 18, 4-(4-(4-((trans-4-(tert-Butyl)cyclohexyl)oxy)phenyl)piperazin-1-yl)butanoic acid] | – | – | – | –
17 | > 5 | – | > 5 | > 5 | CCCCCCCCOc1ccc(N2CCN(CCC(=O)O)CC2)nc1 [Example 22, 3-(4-(5-(Octyloxy)pyridin-2-yl)piperazin-1-yl)propanoic acid] | – | – | – | –
18 | > 5 | – | ≤ 2 | > 5 | CC(C)(C)[C@H]1CC[C@H](Oc2ccc(C3CCN(CCC(=O)O)C3)cc2)CC1 (stereo partly drawn) [Example 23, 3-(3-(4-((trans-4-(tert-Butyl)cyclohexyl)oxy)phenyl)pyrrolidin-1-yl)propanoic acid] | – | – | – | –
19 | > 5 | – | ≤ 2 | > 5 | CC(C)(C)[C@H]1CC[C@H](Oc2ccc(C3CCN(CCCC(=O)O)C3)cc2)CC1 (stereo partly drawn) [Example 24, 4-(3-(4-((trans-4-(tert-Butyl)cyclohexyl)oxy)phenyl)pyrrolidin-1-yl)butanoic acid] | – | – | – | –
20 | > 5 | – | ≤ 2 | – | CC(C)(C)[C@H]1CC[C@H](Oc2ccc(C3CCCN(C4CCC(C(=O)O)CC4)C3)cc2)CC1 (stereo partly drawn) [Example 25, 4-(3-(4-((trans-4-(tert-Butyl)cyclohexyl)oxy)phenyl)piperidin-1-yl)cyclohexanecarboxylic acid] | – | – | – | –
21 | > 5 | – | ≤ 5 | > 5 | CC(C)(C)[C@H]1CC[C@H](Oc2ccc(C3CCN(CCCCC(=O)O)CC3)cc2)CC1 [Example 50, 5-(4-(4-((trans-4-(tert-Butyl)cyclohexyl)oxy)phenyl)piperidin-1-yl)pentanoic acid] | – | – | – | –

Row | SMILES | IC50 (S1P1; [1]) [µM] | IC50 (Human ATX protein; [2]) [µM] | IC50 (S1P4; [3]) [µM] | IC50 (S1P5; [4]) [µM] | IC50 (S1P5) [µM] | IC50 (S1P1) [µM] | IC50 (Human ATX protein) [µM] | IC50 (S1P4) [µM]
22 | CC(C)(C)[C@H]1CC[C@H](Oc2ccc(C3=CCN(CCCCC(=O)O)CC3)cc2)CC1 [Example 49, 5-(4-(4-((trans-4-(tert-Butyl)cyclohexyl)oxy)phenyl)-5,6-dihydropyridin-1(2H)-yl)pentanoic acid] | – | – | – | > 5 | – | > 5 | – | ≤ 2
